Read-outs that look alike come from different tables or passages of the source.
Assays:
Solubility in pure water = type: physicochemical; conditions: pure water, 18 °C, water, thermodynamic from solid
Experimental: A measured amount of Dex-Vi was partially dissolved in pure water. The solution was then centrifuged. The supernatant was decanted, and the volume was measured. The remainder of the solid was dried in a vacuum oven and weighed. Finally, the weight of the remaining Dex-Vi was subtracted from the initial added mass to obtain the amount dissolved in the supernatant, permitting calculation of the maximum soluble concentration.

[1] = Membrane permeability in H-cell; type: physicochemical; conditions: Selemion DSV membrane
Experimental: 0.33 M Dex-Vi in pure water was separated by an anion-exchange membrane (DSV) from 1 M NaCl in an H-cell. […] The cell was agitated on a shaker to partially simulate flow dynamics. Aliquots of the receiving end (1 M NaCl side) were taken every few days, and the removed volume was replaced with 1 M NaCl. The concentration of Dex-Vi in the aliquot was determined by measuring the absorbance at 285 nm using a UV-Vis spectrophotometer. The concentration as a function of time data was then used to calculate the permeability constant of Dex-Vi. (Kwabi, D. G. et al., Joule 2018, 2, 1894-1906)
Permeability was calculated using Eqn. 4 which follows Fick's Law, where P is the permeability in cm^2·s^−1, A is the membrane area in cm^2, t is elapsed time in seconds, Ct is the concentration (mol·cm^−3) of Dex-Vi on the receiving side at time t, C0 is the initial concentration of Dex-Vi on the donating side, Vo is the volume of one side of the H-cell, and l is the membrane thickness in cm.

Degradation in 1M KOH = type: physicochemical
[2] = Degradation kinetics in sodium hydroxide; conditions: one-and-one-half order overall
Description: The chemical stability of the first redox processes of Dex-Vi was investigated using a symmetric, volumetrically-unbalanced flow cell inside an N2 glovebox.

[3] = Full RFB cell cycling, anolyte-limiting, BTMAP-Fc catholyte; conditions: for capacity decay in RFB cycling: anolyte-limiting
Experimental: The RFB measurements were carried out in a custom-made zero-gap device previously reported by Li et al. (Li, W. et al., Chem 2018, 4 (11), 2644-2657; and Li, W. et al., Adv. Energy Mater. 2019, 9 (31), 1900918.) Both symmetric flow cell and RFB full cell measurements were conducted using a Bio-Logic SP-200 potentiostat at room temperature (˜20° C.). In symmetric cells, 0.1 M of active species in 1 M NaCl (pre-charged to 50% SOC of the first electron reduction using FcNCl as the counter cathode in bulk electrolysis) was utilized on both sides with the capacity limiting side (CLS) consisting of 5 mL of solution and the non-capacity limiting side (NCLS) consisting of 10 mL of solution separated by a Selemion AMV anion-exchange membrane (Asahi Glass Co.). The neat Dex-Vi full RFB cell cycling was performed using the product from the Dex-Vi synthesis directly without any purification. The neat product was diluted to roughly 0.1 M to pair with a 0.2 M BTMAP-Fc counter catholyte in excess capacity separated by an AMV membrane. Both the anolyte and catholyte were 5 mL in total volume with 0.5 M NaCl supporting electrolyte. The first electron high concentration Dex-Vi RFB full cell cycling was performed using 5 mL of 1.5 M Dex-Vi as the anolyte and 10 mL 0.75 M BTMAP-Fc as the catholyte, both of which were prepared in pure water without any supporting salt, with a DSV anion-exchange membrane. The second-electron high concentration full cell cycling was performed using 5 mL of 1.5 M Dex-Vi in water as the anolyte, 20 mL of 0.75 M BTMAP-Fc in water as the catholyte, and a DSV anion-exchange membrane. Rate performance was investigated using 0.1 M Dex-Vi anolyte and 0.2 M BTMAP-Fc catholyte both in 1 M NaCl with DSV anion-exchange membrane.
Graphite plates (⅛-inch thickness, MWI Inc.) with a 20×20×1.2 mm pocket were used as current collectors for RFB devices. 4 cm^2 graphite felt electrodes (GFD 3 EA, […]®) were pre-treated at 400° C. in air for 6 hr before being used on both sides of the cell. 25×25 mm Selemion AMV or DSV was presoaked in 1.0 M NaCl for more than 24 hr before it was used as an anion-exchange membrane. The cell was assembled with four pieces of die cut PTFE sheets (0.04-inch thickness) as gaskets and tightened with eight #10-24 bolts. The electrolytes were pumped through the flow channels by a peristaltic pump (Cole-Parmer Masterflex L/S) via PharMed BPT tubing. The electrolyte flow rate was controlled at 20 mL·min^−1 for all RFB measurements. 10 mL custom made glass vials with two 4 mm OD electrolyte inlet/out arms were used as electrolyte reservoirs. […]

C[N+](C)(C)CC(O)C[n+]1ccc(-c2cc[n+](CC(O)C[N+](C)(C)C)cc2)cc1 (stereo not drawn) [Dex-Vi, bis(3-trimethylammonio-2-hydroxy)propyl viologen tetrachloride]
solubility (Solubility in pure water; Example 2, read-out: Water Solubility): 1800 mM | solubility (Solubility in pure water; room temperature (~18° C.), read-out: maximum solubility): ~2000 mM | permeance [1]: 2.3×10^−11 cm^2·s^−1 | Degradation in 1M KOH, k (Degradation in 1M KOH): 3.22e-06 s⁻¹ | degradation rate constant k [2]: 2.3×10^−6 s^−1·M^−1/2 | capacity decay in RFB cycling ([3]; 0.1 M, two weeks (1,200+ cycles)): no observable decay | capacity decay in RFB cycling ([3]; 1.5 M, one month continual cycling): no discernable decay | Anolyte-limiting RFB Stability ([3]; Table 1): ~0% decay/year | RFB Viologen Molarity (1e^−) ([3]; Table 1): 1.5

— patent publication US12291513B2, “Pyridinium derivatives made by hydrothermal synthesis for use as anolytes in electrochemical cells” (Wisconsin Alumni Research Foundation, priority 2021, dated 2025)
